Data from patent publication US20120269802A1, “Treatment And Prognosis With Thalidomide In Multiple Myeloma Based on Karyotyping And Gene Expression Profiling” (Board Of Trustees Of The University Of Arkansas, priority 2009, published 2012).

System: multiple myeloma
Assay: Total Therapy 2 (TT2) randomized trial, control arm vs thalidomide arm: survival (Kaplan-Meier, Cox regression)
Format: in vivo, patients
Conditions: for Overall Survival HR (95% CI), randomization to thalidomide: all patients with GEP data
Source text: To clarify the underlying mechanism, survival was examined in the 351 patients for whom gene expression profiling and cytogenetic data were available. […] Survival in the context of cytogenetic abnormalities involving chromosomal loci (CA1, CA13) was also examined. Statistical methods including Cox regression modeling were employed to define variables independently impacting outcomes.
Of all 668 patients accrued to TT2, the 351 with gene expression profiling data available on CD138-purified plasma cells prior to initiation of therapy are the subjects of this report. […] The sole clinical outcome focus in this example is the overall survival measured from initiation of therapy.
Kaplan-Meier methods were used to generate survival distribution graphs and comparisons were made using the log-rank test. Categorical comparisons were made using the chi-squared test. Running log-rank tests were used to determine optimal cut points for IL6R expression levels. Multivariate analyses applied stepwise selection and Cox proportional hazard regression modeling.
In each of Tables 2-3: HR—Hazard Ratio, 95% Cl-95% Confidence Interval, P-value from Wald Chi-Square Test in Cox Regression NS2-Multivariate results not statistically significant at 0.05 level. All univariate p-values reported regardless of significance. Multivariate model uses stepwise selection with entry level 0.1 and variable remains if meets the 0.05 level. A multivariate p-value greater than 0.05 indicates variable forced into model with significant variables chosen using stepwise selection. Variables considered for the multivariate model were: Cytogenetic abnormalities, CA1, CA13, CA 1+13, Albumin <3.5 g/dL, B2M >5.5 mg/L, Creatinine ≧2 mg/dL, Hb <10 g/dL, LDH ≧190 U/L, GEP high-risk, GEP TP53 deletion, GEP IL6R expression ≧2900, GEP CKS1B Q4, Randomization to thalidomide, IL6R and CA 1+13 (interaction term).

O=C1CCC(N2C(=O)c3ccccc3C2=O)C(=O)N1 (stereo not shown) [thalidomide]
7-year survival estimate (GEP-defined low-risk myeloma, subset displaying cytogenetic abnormalities, thalidomide arm vs 30% on control arm, p=0.004 (FIG. 1B)): 67%
outcome vs control arm (all patients with GEP-defined low-risk myeloma, p=0.13): only trending toward better outcomes
5-year survival estimate (low-risk patients, CA1/13 subgroup (CA without both CA1 and CA13), addition of thalidomide vs 59% control, p<0.001 (FIG. 1C)): 95%
survival outcomes on both treatment arms (low-risk patients, subgroups with no cytogenetic abnormalities and with CA1+13 (FIG. 1C)): similar
Overall Survival HR (95% CI), randomization to thalidomide (multivariate analysis, n/N 168/337, P 0.037): 0.69 (0.49, 0.98)
OS from Enrollment HR (95% CI), CA with thalidomide randomization (interaction term) (multivariate analysis, patients with GEP-defined low-risk, n/N 33/304, P 0.003): 0.27 (0.11, 0.64)
OS from Enrollment HR (95% CI), randomization to thalidomide (multivariate analysis, patients with GEP-defined low-risk, n/N 149/304, P 0.766): 1.08 (0.65, 1.79)
7-year survival (patients exhibiting cytogenetic abnormalities (CA), randomized to thalidomide in TT2, vs 25% on control arm, p=0.015 (FIG. 1A)): 54%
Overall Survival HR (95% CI), randomization to thalidomide (univariate analysis, n/N 175/351, P 0.158): 0.78 (0.56, 1.10)
OS from Enrollment HR (95% CI), randomization to thalidomide (univariate analysis, patients with GEP-defined low-risk, n/N 149/305, P 0.140): 0.74 (0.50, 1.10)
